Results on 6 compounds are retold here after patent US8541584B2, “3-(1,2,3-triazol-4-yl) pyrrolo [2,3-b] pyridine derivatives” (Merck Patent GmbH, priority 2009, dated 2013).

In general, IC50 refers to the midpoint of a concentration-inhibition curve.

One test concerns the target T1, PDK1 (Homo sapiens, UniProt O15530).
T1 construct: His6 (N)
T1 sequence (O15530 51-556 limits assumed): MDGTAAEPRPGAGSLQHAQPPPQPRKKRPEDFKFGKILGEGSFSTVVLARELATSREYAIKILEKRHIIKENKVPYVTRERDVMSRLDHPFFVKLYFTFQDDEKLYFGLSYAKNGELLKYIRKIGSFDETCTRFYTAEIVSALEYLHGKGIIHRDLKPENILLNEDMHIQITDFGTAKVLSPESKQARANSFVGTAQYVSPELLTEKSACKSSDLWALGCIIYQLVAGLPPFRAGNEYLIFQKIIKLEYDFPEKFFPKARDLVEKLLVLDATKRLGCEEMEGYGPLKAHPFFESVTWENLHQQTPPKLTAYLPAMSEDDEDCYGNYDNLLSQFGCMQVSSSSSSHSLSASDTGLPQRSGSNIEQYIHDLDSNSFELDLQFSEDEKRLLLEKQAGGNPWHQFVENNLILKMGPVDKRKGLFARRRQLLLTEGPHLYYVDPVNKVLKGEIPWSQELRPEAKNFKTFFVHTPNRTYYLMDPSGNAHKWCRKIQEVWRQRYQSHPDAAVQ
The test is described as follows: Test for the inhibition of PDK1 (384-well flashplate, 33P-ATP). The class given is biochemical. The note with it: His6-PDK1 3.4 nM, 4 μM ATP, 30° C., 60 min. The protocol: 4.0 Test for the Inhibition of PDK1
The experimental batches are carried out in a flashplate system with 384 wells/microtitration plate.
In each case, the PDK1 sample His6-PDK1(1-50)(3.4 nM), the PDK1 substrate biotin-bA-bA-[…] (400 nM), 4 μM ATP (with 0.2 μCi of ^33P-ATP/well) and the test substance in 50 μl of conventional experimental solution per well are incubated at 30° C. for 60 min. The test substances are employed in corresponding concentrations (if desired in a dilution series). The control is carried out without test substance. The reaction is stopped using standard methods and washed. The activity of the kinase is measured via the incorporated radioactivity in top count. In order to determine the non-specific kinase reaction (blank value), the experimental batches are carried out in the presence of 100 nM staurosporin.
The radioactivity (decompositions per minute) of the blank value (no use of test substance in the presence of staurosporin) is subtracted from all other radioactivity values. The controls (kinase activity without test substance) are set equal to 100 percent and all other radioactivity values (after subtracting the blank value) are expressed set in relation thereto (for example in % of the control).
IC50 values (50% inhibition) are determined with the aid of statistics programmes, such as, for example, RS1.

A further test concerns the target T2, IKKε (Homo sapiens, UniProt Q14164).
T2 sequence (Q14164 1-716): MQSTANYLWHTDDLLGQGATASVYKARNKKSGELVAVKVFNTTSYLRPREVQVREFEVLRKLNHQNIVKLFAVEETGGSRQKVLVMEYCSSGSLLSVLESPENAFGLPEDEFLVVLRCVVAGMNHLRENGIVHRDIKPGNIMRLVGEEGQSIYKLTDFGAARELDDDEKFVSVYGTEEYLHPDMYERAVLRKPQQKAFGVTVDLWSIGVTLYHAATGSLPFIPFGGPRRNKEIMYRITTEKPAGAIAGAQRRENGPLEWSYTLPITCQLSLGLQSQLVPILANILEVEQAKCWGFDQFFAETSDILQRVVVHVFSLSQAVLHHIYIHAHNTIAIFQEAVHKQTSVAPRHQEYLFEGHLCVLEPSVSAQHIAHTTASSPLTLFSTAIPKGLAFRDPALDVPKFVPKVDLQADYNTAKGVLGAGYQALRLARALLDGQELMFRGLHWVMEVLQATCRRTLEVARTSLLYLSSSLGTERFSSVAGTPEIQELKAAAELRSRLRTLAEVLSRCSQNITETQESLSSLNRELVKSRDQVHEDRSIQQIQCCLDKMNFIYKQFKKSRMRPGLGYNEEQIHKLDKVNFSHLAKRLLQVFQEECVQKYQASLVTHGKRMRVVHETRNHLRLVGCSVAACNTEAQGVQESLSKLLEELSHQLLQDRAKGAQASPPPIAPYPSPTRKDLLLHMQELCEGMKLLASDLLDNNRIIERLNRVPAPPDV
The test is described as follows: IKKε kinase test (384-well flashplate). The note with it: 1 nM IKKε, 10 μM ATP, 30° C., 120 min; read-out: IC50 [IKKepsilon]. The class given is biochemical. The protocol:
IKKε—Kinase Test (IKKepsilon)
The kinase assay is performed as 384-well flashplate assay.
1 nM IKKε, 800 nM biotinylated IκBα(19-42) peptide (biotin-C6-C6-[…]) and 10 μM ATP (with 0.3 μCi of ^33P-ATP/well) are incubated in a total volume of 50 μl (10 mM MOPS, 10 mM magnesium acetate, 0.1 mM EGTA, 1 mM dithiothreitol, 0.02% of Brij35, 0.1% of BSA, 0.1% of BioStab, pH 7.5) with or without test substance at 30° C. for 120 min. The reaction is stopped using 25 μl of 200 mM EDTA solution, filtered off with suction after 30 min at room temperature, and the wells are washed 3 times with 100 μl of 0.9% NaCl solution. The non-specific proportion of the kinase reaction (blank) is determined using 3 μM EMD 1126352 (BX-795). Radioactivity is measured in the Topcount. IC50 values are calculated using RS1.

For `Cc1cccc(Cn2cc(-c3c[nH]c4ncc(-c5cnn(C)c5)cc34)nn2)c1` [Compound A7, 3-[1-(3-Methylbenzyl)-1H-1,2,3-triazol-4-yl]-5-(1-methyl-1H-pyrazol-4-yl)-1H-pyrrolo[2,3-b]pyridine], the IC50 on PDK1 and at IKKε was 0.5 to 1000 nM throughout.
Take `Cn1cc(-c2cnc3[nH]cc(-c4cn(Cc5ccncc5)nn4)c3c2)cn1` [Compound A9, 5-(1-Methyl-1H-pyrazol-4-yl)-3-(1-pyridin-4-ylmethyl-1H-1,2,3-triazol-4-yl)-1H-pyrrolo-[2,3-b]pyridine]: the IC50 at PDK1 and at IKKε was 0.5 to 1000 nM in each case.
As to `Cn1cc(-c2cnc3[nH]cc(-c4cn(Cc5ccccc5F)nn4)c3c2)cn1` [Compound A17, 3-[1-(2-Fluorobenzyl)-1H-1,2,3-triazol-4-yl]-5-(1-methyl-1H-pyrazol-4-yl)-1H-pyrrolo-[2,3-b]pyridine], the half-maximal inhibitory concentration (IC50) on PDK1 and on IKKε was 0.5 to 1000 nM in each case.
For `CC(c1ccccc1C(F)(F)F)n1cc(-c2c[nH]c3ncc(-c4cnn(C)c4)cc23)nn1` (stereo not drawn) [Compound A20, 5-(1-Methyl-1H-pyrazol-4-yl)-3-{1-[1-(2-trifluoromethylphenyl)ethyl]-1H-1,2,3-triazol-4-yl}-1H-pyrrolo[2,3-b]pyridine], the IC50 against PDK1 and on IKKε was 0.5 to 1000 nM in each case.
Turning to `Cn1cc(-c2cnc3[nH]cc(-c4cn(Cc5cccc(F)c5F)nn4)c3c2)cn1` [Compound A25, 3-[1-(2,3-Difluorobenzyl)-1H-1,2,3-triazol-4-yl]-5-(1-methyl-1H-pyrazol-4-yl)-1H-pyrrolo-[2,3-b]pyridine], the IC50 against PDK1 and on IKKε was 0.5 to 1000 nM each time.
As to `Cn1cc(-c2cnc3[nH]cc(-c4cn(Cc5ccc6ncccc6c5)nn4)c3c2)cn1` [Compound A29, 6-{4-[5-(1-Methyl-1H-pyrazol-4-yl)-1H-pyrrolo[2,3-b]pyridin-3-yl]-1,2,3-triazol-1-ylmethyl}quinoline], the IC50 on PDK1 was 0.5 to 1000 nM; on IKKε it was 1000 to 10000 nM.
